# Measurements published in article PMC10006169, “A phase I trial of LXS196, a protein kinase C (PKC) inhibitor, for metastatic uveal melanoma” (British Journal of Cancer, 2023).
# Where two headings read alike, the source gives them in different places.
# Test: Plasma pharmacokinetics (LC-MS/MS)
# Assay type: in vivo, human
# Conditions: human, plasma, oral; for Tmax: read-out: Tmax, Median (Min, max); for concentration at 15 day: read-out: Cmin, Median (Min, max)
# Procedure: In the dose escalation part of the study, PK samples were collected at various pre- and post-dose time points on C1D1, D2, D3, D15 and D16. Drug concentrations were assessed using a validated liquid chromatography-tandem mass spectrometry assay.
structure (smiles),measurement,setting,value
CC1(N)CCN(c2cccnc2NC(=O)c2nc(-c3ncccc3C(F)(F)F)cnc2N)CC1 [LXS196],Tmax,"100 mg, C1D1, 100 mg QD, n=3",1 h
same,AUC(0-t),"100 mg, C1D15, 100 mg QD, n=2, read-out: AUC0-t, Geo-mean",10400 ng·h/mL
same,AUC(0-t),"100 mg, C1D15, 100 mg QD, n=2, read-out: AUC0-t, Mean (SD)",10400 ng·h/mL
same,AUC(0-t),"100 mg, C1D15, 100 mg QD, n=2, read-out: AUC0-t, Median (Min, max)",10400 ng·h/mL
same,Cmax,"100 mg, C1D15, 100 mg QD, n=3, read-out: Cmax, Geo-mean",1180 ng/mL
same,Cmax,"100 mg, C1D15, 100 mg QD, n=3, read-out: Cmax, Mean (SD)",1190 ng/mL
same,Cmax,"100 mg, C1D15, 100 mg QD, n=3, read-out: Cmax, Median (Min, max)",1260 ng/mL
same,concentration at 15 day,"100 mg, C1D15, 100 mg QD, n=3",112 ng/mL
same,Tmax,"100 mg, C1D15, 100 mg QD, n=3",1 h
same,AUC(0-t),"200 mg, C1D1, 200 mg BID, n=6, read-out: AUC0-t, Geo-mean",15400 ng·h/mL
same,AUC(0-t),"200 mg, C1D1, 200 mg BID, n=6, read-out: AUC0-t, Mean (SD)",18600 ng·h/mL
same,AUC(0-t),"200 mg, C1D1, 200 mg BID, n=6, read-out: AUC0-t, Median (Min, max)",13300 ng·h/mL
same,AUC(0-inf),"200 mg, C1D1, 200 mg BID, n=6, read-out: AUCinf, Geo-mean",24000 ng·h/mL
same,AUC(0-inf),"200 mg, C1D1, 200 mg BID, n=6, read-out: AUCinf, Mean (SD)",29200 ng·h/mL
same,AUC(0-inf),"200 mg, C1D1, 200 mg BID, n=6, read-out: AUCinf, Median (Min, max)",21600 ng·h/mL
same,Cmax,"200 mg, C1D1, 200 mg BID, n=6, read-out: Cmax, Geo-mean",3270 ng/mL
same,Cmax,"200 mg, C1D1, 200 mg BID, n=6, read-out: Cmax, Mean (SD)",4070 ng/mL
same,Cmax,"200 mg, C1D1, 200 mg BID, n=6, read-out: Cmax, Median (Min, max)",2950 ng/mL
same,half-life,"200 mg, C1D1, 200 mg BID, n=6, read-out: T1/2, Geo-mean (converted)",13 h
same,half-life,"200 mg, C1D1, 200 mg BID, n=6, read-out: T1/2, Mean (SD) (converted)",13.1 h
same,half-life,"200 mg, C1D1, 200 mg BID, n=6, read-out: T1/2, Median (Min, max) (converted)",13.1 h
same,Tmax,"200 mg, C1D1, 200 mg BID, n=6",0.525 h
same,AUC(0-t),"200 mg, C1D1, 200 mg QD, n=3, read-out: AUC0-t, Geo-mean",18700 ng·h/mL
same,AUC(0-t),"200 mg, C1D1, 200 mg QD, n=3, read-out: AUC0-t, Mean (SD)",19100 ng·h/mL
same,AUC(0-t),"200 mg, C1D1, 200 mg QD, n=3, read-out: AUC0-t, Median (Min, max)",18900 ng·h/mL
same,AUC(0-inf),"200 mg, C1D1, 200 mg QD, n=3, read-out: AUCinf, Geo-mean",21300 ng·h/mL
same,AUC(0-inf),"200 mg, C1D1, 200 mg QD, n=3, read-out: AUCinf, Mean (SD)",21600 ng·h/mL
same,AUC(0-inf),"200 mg, C1D1, 200 mg QD, n=3, read-out: AUCinf, Median (Min, max)",22600 ng·h/mL
same,Cmax,"200 mg, C1D1, 200 mg QD, n=3, read-out: Cmax, Geo-mean",3410 ng/mL
same,Cmax,"200 mg, C1D1, 200 mg QD, n=3, read-out: Cmax, Mean (SD)",3540 ng/mL
same,Cmax,"200 mg, C1D1, 200 mg QD, n=3, read-out: Cmax, Median (Min, max)",2860 ng/mL
same,half-life,"200 mg, C1D1, 200 mg QD, n=3, read-out: T1/2, Geo-mean (converted)",8.36 h
same,half-life,"200 mg, C1D1, 200 mg QD, n=3, read-out: T1/2, Mean (SD) (converted)",8.52 h
same,half-life,"200 mg, C1D1, 200 mg QD, n=3, read-out: T1/2, Median (Min, max) (converted)",8.44 h
same,Tmax,"200 mg, C1D1, 200 mg QD, n=3",1 h
same,AUC(0-t),"200 mg, C1D15, 200 mg BID, n=5, read-out: AUC0-t, Geo-mean",15400 ng·h/mL
same,AUC(0-t),"200 mg, C1D15, 200 mg BID, n=5, read-out: AUC0-t, Mean (SD)",16900 ng·h/mL
same,AUC(0-t),"200 mg, C1D15, 200 mg BID, n=5, read-out: AUC0-t, Median (Min, max)",16000 ng·h/mL
same,Cmax,"200 mg, C1D15, 200 mg BID, n=5, read-out: Cmax, Geo-mean",2470 ng/mL
same,Cmax,"200 mg, C1D15, 200 mg BID, n=5, read-out: Cmax, Mean (SD)",2910 ng/mL
same,Cmax,"200 mg, C1D15, 200 mg BID, n=5, read-out: Cmax, Median (Min, max)",2540 ng/mL
same,concentration at 15 day,"200 mg, C1D15, 200 mg BID, n=5",883 ng/mL
same,Tmax,"200 mg, C1D15, 200 mg BID, n=5",1 h
same,AUC(0-t),"200 mg, C1D15, 200 mg QD, n=3, read-out: AUC0-t, Geo-mean",12900 ng·h/mL
same,AUC(0-t),"200 mg, C1D15, 200 mg QD, n=3, read-out: AUC0-t, Mean (SD)",13200 ng·h/mL
same,AUC(0-t),"200 mg, C1D15, 200 mg QD, n=3, read-out: AUC0-t, Median (Min, max)",13800 ng·h/mL
same,Cmax,"200 mg, C1D15, 200 mg QD, n=3, read-out: Cmax, Geo-mean",2490 ng/mL
same,Cmax,"200 mg, C1D15, 200 mg QD, n=3, read-out: Cmax, Mean (SD)",2500 ng/mL
same,Cmax,"200 mg, C1D15, 200 mg QD, n=3, read-out: Cmax, Median (Min, max)",2620 ng/mL
same,concentration at 15 day,"200 mg, C1D15, 200 mg QD, n=3",149 ng/mL
same,Tmax,"200 mg, C1D15, 200 mg QD, n=3",1 h
same,AUC(0-inf),"300 mg, C1D1, 300 mg BID, n=16, read-out: AUCinf, Geo-mean",30900 ng·h/mL
same,AUC(0-inf),"300 mg, C1D1, 300 mg BID, n=16, read-out: AUCinf, Mean (SD)",35200 ng·h/mL
same,AUC(0-inf),"300 mg, C1D1, 300 mg BID, n=16, read-out: AUCinf, Median (Min, max)",28400 ng·h/mL
same,half-life,"300 mg, C1D1, 300 mg BID, n=16, read-out: T1/2, Geo-mean (converted)",11.9 h
same,half-life,"300 mg, C1D1, 300 mg BID, n=16, read-out: T1/2, Mean (SD) (converted)",12.1 h
same,half-life,"300 mg, C1D1, 300 mg BID, n=16, read-out: T1/2, Median (Min, max) (converted)",11.8 h
